Measured values from patent publication US11780821B2, “Inhibitors of fibroblast activation protein” (Praxis Biotech LLC, priority 2017, dated 2023).
Where two headings read alike, the source gives them in different places.

Assays:
[1] = biological target: T1, circulating FAPα from hamster plasma (Mesocricetus auratus, UniProt A0ABM2XF29); experiment: Ex vivo inhibition of circulating FAPα activity from hamster plasma; format: biochemical, Golden Syrian hamster
T1 sequence (A0ABM2XF29 24-761): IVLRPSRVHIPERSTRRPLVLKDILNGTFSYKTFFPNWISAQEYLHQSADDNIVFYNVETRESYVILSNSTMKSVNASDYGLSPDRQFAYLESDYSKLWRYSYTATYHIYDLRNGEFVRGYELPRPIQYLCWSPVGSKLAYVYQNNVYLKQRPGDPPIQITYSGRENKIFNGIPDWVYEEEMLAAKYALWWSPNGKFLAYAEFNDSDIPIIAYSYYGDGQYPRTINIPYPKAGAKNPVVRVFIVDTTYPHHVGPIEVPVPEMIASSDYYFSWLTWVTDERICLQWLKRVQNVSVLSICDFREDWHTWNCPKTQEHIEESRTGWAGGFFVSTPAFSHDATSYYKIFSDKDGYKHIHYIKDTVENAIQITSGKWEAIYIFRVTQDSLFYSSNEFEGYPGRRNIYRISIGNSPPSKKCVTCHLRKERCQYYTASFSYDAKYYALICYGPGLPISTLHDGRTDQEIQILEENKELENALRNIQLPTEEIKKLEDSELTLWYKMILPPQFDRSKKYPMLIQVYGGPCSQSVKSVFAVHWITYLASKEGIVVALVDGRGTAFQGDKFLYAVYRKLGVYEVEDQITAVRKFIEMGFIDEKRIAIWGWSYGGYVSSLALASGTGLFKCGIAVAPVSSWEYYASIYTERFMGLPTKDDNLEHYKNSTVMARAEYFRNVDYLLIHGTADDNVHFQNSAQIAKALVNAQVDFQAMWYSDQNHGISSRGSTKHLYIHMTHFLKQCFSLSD
Protocol: Male Golden Syrian hamsters were provided by National Laboratory Animal Center (NLAC) in Taiwan. The animals were maintained in a hygienic environment under controlled temperature (20-24° C.) and humidity (50%-80%) with 12 hours light/dark cycles. Free access to standard lab diet [MFG (Oriental Yeast Co., Ltd. Japan)] and autoclaved tap water were granted. All aspects of this work including housing, experimentation and disposal of animals were performed in general accordance with the “Guide for the Care and Use of Laboratory Animals: Eighth Edition” (National Academies Press, Washington, D.C., 2011). In addition, the animal care and use protocol was reviewed and approved by the IACUC at Pharmacology Discovery Services Taiwan, Ltd. Immediately after the sacrifice of hamsters, blood samples were collected via terminal cardiac puncture in tubes coated with EDTA-K2, mixed gently, then kept on ice and centrifuged at 2,500×g for 15 minutes at 4° C. After plasma separation, samples were stored at −80° C. in aliquots of 300 μL.
To assay exemplary compounds in hamster plasma, a similar protocol as described for human plasma was performed diluting thawed plasma 1:2 in cFAP buffer. In a 96-well black plate, 5 μl of diluted hamster plasma were mixed with 35 μl of the same buffer and 10 μl of exemplary test compounds at different concentrations or vehicle (DMSO).
Exemplary test compounds were allowed to interact with the enzyme for 15 minutes at 37° C. After pre-incubation, 50 μl of 200 μM PRXS-AMC substrate were added to the all mixtures. All reactions were carried out for 1 h at 37° C. protected from light. AMC release was detected measuring fluorescence at an excitation/emission wavelength of 380/460 nm using a Multifunction Microplate Reader. All measurements were carried out as single point.

[2] = Intravenous and oral bioavailability in mice; format: in vivo; conditions: mouse; for AUC(0-t): oral (PO) 10 mg/kg single dose; for bioavailability: PO 10 mg/kg vs IV 2 mg/kg, read-out: F (bioavailability)
Protocol: The pharmacokinetic properties of exemplary test compounds were assayed after administration of an intravenous (IV) 2 mg/kg or oral (PO) 10 mg/kg single dose in mice. Exemplary test compounds were formulated at 0.4 and 1 mg/ml in a vehicle containing Poly-Ethylene Glycol 200 (PEG200; Cat. No. #P3015, Sigma Aldrich) and distilled water (dH2O) (50/50, v/v) as dosing solutions for intravenous and oral administration, respectively.
C57BL/6j and Balb/c mice, approximately 8-10 weeks old, were obtained from the vivarium Fundación Ciencia & Vida Chile (Santiago, Chile) and maintained in a temperature-controlled room with 12/12 hr light/dark schedule with food and water ad libitum. Animals were acclimated for a minimum period of 4 days upon arrival at the testing facility.
On the day of study, mice were weighed and identified by marking the tail with numbers using a non-toxic permanent marker for designation into the experimental groups (n=3 per group). Each mouse in the IV dosing groups received a systemic bolus of 2 mg/kg dosing solution via the caudal vein.
Non-dosed mice were used to collect samples of zero time points. […] Blood samples were centrifuged immediately at 9,000 g at 4° C. for 5 min and the plasma was separated.
The plasma samples were analyzed by QTRAP 4500 triple quadrupole mass spectrometer (Applied Biosystems SCIEX) in positive or negative ion mode depending on the tested compound and interfaced with an ekspert ultraLC 100-XL UPLC System (eksigent) to determine the concentration of the exemplary test compound. […] The precipitated samples were centrifuged at 6,100 g for 30 min at 4° C. Following centrifugation, an aliquot of each supernatant was transferred into a clean sample vial and diluted with two volumes of aqueous mobile phase (0.2% formic acid in water). Samples were injected onto a reverse phase analytical column (YMC Triart C18; 2.0×50 mm; 1.9 μm; YMC CO) and eluted with a gradient of 0.1 or 0.2% formic acid in Acetonitrile. Test compound and internal standard were monitored by a multiple reaction monitoring (MRM) experiment using Analyst software (v1.6.2, Applied Biosystems SCIEX). Quantitation was conducted using MultiQuant software (v2.1, Applied Biosystems SCIEX) and the resulting calibration curve was fitted with a linear or quadratic regression and 1/x weighting.
IV and PO PK parameters were calculated from the concentration-time data using Phoenix WinNonlin software (v6.4, Certara, Princeton, N.J.) by noncompartmental analysis. Area under the concentration-time curve (AUClast) was estimated using a log-linear trapezoidal method, from the dosing time to the last measurable concentration.

[3] = read-out: FAPα activity in hamster plasma (PRXS-AMC) IC50, PRXS-AMC substrate
[4] = PRXS-AMC substrate, read-out: FAPα activity in hamster plasma (PRXS-AMC) IC50

Structure (SMILES)	IC50 [1, 3]	AUC(0-t) ([2]; plasma)	bioavailability ([2]; plasma)	bioavailability ([2]; in vivo)	AUC(0-t) ([2]; in vivo, plasma)	IC50 [1, 4]
N#C[C@@H]1CC(F)(F)CN1C(=O)CNC(=O)c1ccncc1-c1ccccc1 [Compound 13, (S)—N-(2-(2-cyano-4,4-difluoropyrrolidin-1-yl)-2-oxoethyl)-3-phenylisonicotinamide]	< 1000 nM	760 ng·h/mL	27.9%			
N#C[C@@H]1CC(F)(F)CN1C(=O)CNC(=O)c1ccncc1C1CC1 [Compound 24, (S)—N-(2-(2-cyano-4,4-difluoropyrrolidin-1-yl)-2-oxoethyl)-3-cyclopropylisonicotinamide]	< 1000 nM	910 ng·h/mL	54%			
N#C[C@@H]1CC(F)(F)CN1C(=O)CNC(=O)c1ccncc1Cc1ccccc1 [Compound 50, (S)-3-benzyl-N-(2-(2-cyano-4,4-difluoropyrrolidin-1-yl)-2-oxoethyl)isonicotinamide]		1090 ng·h/mL	79.6%			
N#C[C@@H]1CC(F)(F)CN1C(=O)CNC(=O)c1ccncc1-c1ccc(F)cc1 [Compound 52, (S)—N-(2-(2-cyano-4,4-difluoropyrrolidin-1-yl)-2-oxoethyl)-3-(4-fluorophenyl)isonicotinamide]	< 1000 nM	721 ng·h/mL	30.3%			
N#C[C@@H]1CC(F)(F)CN1C(=O)CNC(=O)c1ccncc1C1=CCNCC1 [Compound 105, (S)—N-(2-(2-cyano-4,4-difluoropyrrolidin-1-yl)-2-oxoethyl)-1′,2′,3′,6′-tetrahydro-[3,4′-bipyridine]-4-carboxamide 2,2,2-trifluoroacetate]	< 1000 nM			3%	18.3 ng·h/mL	
N#C[C@@H]1CC(F)(F)CN1C(=O)CNC(=O)c1c[nH]c(=O)cc1-c1ccc(F)cc1 [Compound 109, (S)—N-(2-(2-cyano-4,4-difluoropyrrolidin-1-yl)-2-oxoethyl)-4-(4-fluorophenyl)-6-oxo-1,6-dihydropyridine-3-carboxamide]		2140 ng·h/mL	9%			< 1000 nM
C=C(c1ccccc1)c1cnccc1C(=O)NCC(=O)N1CC(F)(F)C[C@H]1C#N [Compound 122, (S)—N-(2-(2-cyano-4,4-difluoropyrrolidin-1-yl)-2-oxoethyl)-3-(1-phenylvinyl)isonicotinamide]						< 1000 nM
N#C[C@@H]1CC(F)(F)CN1C(=O)CNC(=O)c1c[nH]c(=O)c2ccccc12 [Example 1, (S)—N-(2-(2-cyano-4,4-difluoropyrrolidin-1-yl)-2-oxoethyl)-1-oxo-1,2-dihydroisoquinoline-4-carboxamide]		327 ng·h/mL	6.3%			
